{"source": "patent US12311136B2", "about": "“Using alternating electric fields to increase permeability of the blood brain barrier” (Novocure GmbH, priority 2020, dated 2025)", "assay_type_in_all_cases": "in vivo", "key": {"rat brain (BBB) [1]": {"tested_on": "rat brain (BBB)", "experiment": "DCE-MRI of Gadolinium contrast agent accumulation in rat brain", "settings": "for contrast agent accumulation in the brain tissue, injection 96 h after the fields were turned off: 72 hours fields followed by 96 hours without fields vs control+96 h", "procedure": "Yet another set of in vivo experiments was performed using Dynamic Contrast Enhanced MRI (DCE-MRI) with intravenous injection of Gadolinium contrast agent (Gd-DTPA, Magnetol, MW 547). In these experiments, test rats were treated with 100 kHz alternating electric fields for 72 h, and control rats were not treated with alternating electric fields for the same period of time. After this 72 h period, the alternating electric field was turned off, the rats were anesthetized, and a series of 60 T1w MRI scans (each of the scans having a duration of 28 seconds) was acquired. The gadolinium contrast agent was injected into the rat's tail vein during the 7th of these 60 scans.\nThe image analysis for each rat included (1) determining a baseline for each voxel by calculating the mean of the first six T1w MM scans for each voxel (i.e., the scans prior to the injection of the gadolinium); (2) computing voxel by voxel, the percent signal change (i.e., gadolinium accumulation) over time relative to the baseline; (3) segmenting the brain into anterior, middle, and posterior segments; (4) generating for each of the three segments the mean percent signal change with respect to the baseline over all the voxels in the respective segment and then (5) averaging 4 consecutive time points (i.e. 4 scans) together. Finally, the data from all of the rats within any given group were averaged together.\nTo test whether this increase in permeability of the BBB was temporary, the same test conditions were repeated, but followed with an additional 96 hours without alternating electric fields. After this 96 hour period, a series of 60 T1w MRI scans (each of the scans having a duration of 28 seconds) was acquired using the same procedure described above (including the gadolinium injection). The results of this portion of the DCE-MRI experiment for each of the three segments of the brain are also depicted in FIG. 8. […] From this we can conclude that the permeability of the BBB returns to normal after the alternating electric fields are discontinued.\nThe relationship between the intensity of the alternating electric fields and the impact of those fields on BBB integrity and permeability was also apparent from in vivo experiments in rats using serial dynamic contrast-enhanced (DCE) MM to measure gadolinium (Gd) uptake after 100 kHz alternating electric fields were applied for 72 hours. The rat's brains were segmented into three regions (anterior, posterior, and middle), and simulations of the alternating electric fields delivery to those three regions yielded field strengths of 1.5±0.6 V/cm RMS, 2.1±1.2 V/cm RMS, and 2.7±1.7 V/cm RMS respectively. […] These findings also indicate that the cells' response to alternating electric fields depends on the intensity of the fields."}, "rat brain (BBB) [2]": {"tested_on": "rat brain (BBB)", "experiment": "Evans Blue (EB) accumulation in rat brain after alternating electric fields", "text": "A set of in vivo experiments on rats was also run to quantify the increase in vessel permeability caused by exposure to the alternating electric fields. These experiments used Evans Blue (EB) dye, which is an azo dye that has a very high affinity for serum albumin (molecule size ˜69 kDa). Because of its large molecule size, serum albumin will ordinarily not be able to get past the BBB.\nThis was accomplished by shaving each rat's head, positioning a first pair of capacitively coupled electrodes on the top and bottom of the rat's head, and positioning a second pair of capacitively coupled electrodes on the left and right sides of the rat's head. A 100 kHz AC voltage was then applied between the top and bottom electrodes for 1 second, followed by a 100 kHz AC voltage applied between the right and left electrodes for 1 second, in a repeating sequence.\nUnder the conditions indicated in Table 1 and for the times indicated on Table 1, EB was injected intravenously into the tail vein under anesthesia (Once injected, EB immediately binds to Albumin), and the EB was allowed to circulate for 2 hours in all cases. The following steps were then performed: (a) intracardiac perfusion with saline; (b) brains are sliced in four pieces with a brain slicer; (c) pieces were photographed to localize staining and weighted; (d) EB extraction after tissue homogenization with TCA 50% (1:3) and centrifuge and (e) EB quantification at 610 nm. Results are given as μg EB per g tissue.\nDuring the experiment, two animals from group 2 and one animal from group 4 were excluded (disrupted treatment, failure to inject EB into the tail vein). There were no differences between the animals treated with alternating electric fields (groups 1 and 2) and therefore these animals were grouped together. Similarly, there were no differences between sham heat and control animals (groups 3 and 4) and therefore these animals were grouped together.\nEB accumulation in these four specific sections was then measured. In addition, a computer simulation was performed to determine the field strength in each of these four sections. […]"}, "GBM F98 cells [3]": {"tested_on": "GBM F98 cells", "experiment": "Paclitaxel plus alternating electric fields in rat GBM, fold increase of tumor volume", "settings": "15 mg/kg PTX with 100 kHz fields, day 15, vs heat only", "procedure": "(§1) Another set of in vivo experiments was performed to determine whether paclitaxel (PTX, which is a drug that ordinarily cannot traverse the BBB) can make it across the BBB when the subject is treated with alternating electric fields. In one of these experiments, glioblastoma was induced in rats by injecting them orthotopically with GBM F98 cells on day 0 of the experiment. On day 6, a first set of MRI scans of each rat's brains was obtained. Alternating electric fields at 100 kHz were applied to all the rats on days 7 through 10. On day 10 (i.e., after applying the fields for 72 hours), some of the rats were injected i.p. with 25 mg/kg PTX, while other rats were not injected. Subsequently, on day 13 (i.e., 3 days post PTX administration), a second set of MRI scans of each rat's brain was obtained. Ki67 (red) and DAPI (blue) staining was evaluated for the test and control rats.\nA similar experiment using a 15 mg/kg dose of PTX was performed, except that instead of quantifying the Ki67/DAPI ratio on day 13, MRI scans and post mortem tissue sections were used to determine the fold increase of the tumor volume on day 15. The tumor volumes from these experiments are depicted in FIG. 11. […] And the inventors have concluded that the alternating electric fields allow the PTX (or metabolites thereof) to cross the BBB."}, "GBM F98 cells [4]": {"tested_on": "GBM F98 cells", "experiment": "Paclitaxel plus alternating electric fields in rat GBM, Ki67/DAPI cell proliferation", "settings": "25 mg/kg PTX i.p. after 72 hours 100 kHz fields; day 13; vs alternating electric fields only", "procedure": "as §1"}}}
{"smiles": "O=C([O-])CN(CCN(CC(=O)[O-])CC(=O)O)CCN(CC(=O)[O-])CC(=O)O.[Gd+3]", "note": "[Gd-DTPA]", "values": [{"measurement": "Gd signal enhancement in the middle and posterior brain", "setting": "rat brain (BBB) [1]; 100 kHz fields 72 hours, about 10 minutes after Gd injection, vs control rats", "value": "significantly increased signal enhancement"}, {"measurement": "Gd accumulation in the anterior part of the brain", "setting": "rat brain (BBB) [1]; 100 kHz fields 72 hours, lower field intensities in this region", "value": "no significant Gd accumulation"}, {"measurement": "contrast agent accumulation in the brain tissue (DCE-MRI percent signal change)", "setting": "rat brain (BBB) [1]; 100 kHz fields 72 h vs control rats, anterior, middle, posterior segments", "value": "significantly higher than in the control rats"}, {"measurement": "contrast agent accumulation in the brain tissue, injection 96 h after the fields were turned off", "setting": "rat brain (BBB) [1]; listed as Gd", "value": "no significant accumulation of Gd"}, {"measurement": "contrast agent accumulation in the brain tissue, injection 96 h after the fields were turned off", "setting": "rat brain (BBB) [1]; listed as contrast agent", "value": "not significantly different from the control rats"}, {"measurement": "Gd accumulation in control rats", "setting": "rat brain (BBB) [1]; rats not treated using alternating electric fields", "value": "No significant Gd accumulation"}, {"measurement": "spatial distribution of Gd enhancement", "setting": "rat brain (BBB) [1]; test rats (100 kHz fields 72 h), 20 to 23 minutes post-contrast administration", "value": "distributed in the whole brain"}]}
{"smiles": "Cc1cc(-c2ccc(/N=N/c3ccc4c(S(=O)(=O)O)cc(S(=O)(=O)O)c(N)c4c3O)c(C)c2)ccc1/N=N/c1ccc2c(S(=O)(=O)O)cc(S(=O)(=O)O)c(N)c2c1O", "note": "[EB, Evans Blue]", "values": [{"measurement": "average EB accumulation in the rat brain, averaged over all four sections 1-4", "setting": "rat brain (BBB) [2]; 100 kHz fields 72 hours vs sham heat/control, p<0.05", "value": "higher accumulation of EB"}, {"measurement": "EB accumulation, brain sections 1, 2 (frontal cerebrum)", "setting": "rat brain (BBB) [2]; 100 kHz fields 72 h vs sham heat/control, EB i.v., circulating 2 hours, field strength highest", "value": "statistically significant increase"}, {"measurement": "EB accumulation, posterior brain sections (3, 4)", "setting": "rat brain (BBB) [2]; 100 kHz fields 72 h vs sham heat/control, EB i.v., circulating 2 hours, field strength lower", "value": "smaller increase (that was not statistically significant)"}]}
{"smiles": "CC(=O)O[C@H]1C(=O)[C@@]2(C)[C@H]([C@H](OC(=O)c3ccccc3)[C@]3(O)C[C@H](OC(=O)[C@H](O)[C@@H](NC(=O)c4ccccc4)c4ccccc4)C(C)=C1C3(C)C)[C@]1(OC(C)=O)CO[C@@H]1C[C@@H]2O", "note": "[PTX, paclitaxel]", "values": [{"measurement": "fold tumor volume increase in the GBM tumor", "setting": "GBM F98 cells [3]", "value": "significant decrease in the fold tumor volume increase"}, {"measurement": "cell proliferation in the GBM tumor (Ki67/DAPI ratio)", "setting": "GBM F98 cells [4]", "value": "significant decrease in cell proliferation"}]}
